Measured values reported in patent publication US8361510B2, “Nanogels for cellular delivery of therapeutics” (Georgia Tech Research Corporation, priority 2008, dated 2013).
Where no end group is shown, it is not given here.

How the values were obtained:
Hey cells = assay: Nanogel/siGLO uptake by confocal microscopy, Hey cells; type: cell-based; conditions: Hey cells (high EphA2), 4 h incubation, serum-containing medium
Method: Cell transfection using nanogels. Hey or BG-1 cells were plated onto an 8-well chamber slide (5×10^3 cells/well), and the cells allowed to adhere overnight at 37° C. in a 5% CO2 atmosphere. After washing the wells with PBS and replacing the media, siGLO-loaded/YSA-conjugated nanogels, unloaded YSA-conjugated nanogels, pNIPMAm nanogels, or siGLO only were added to wells. Cells were incubated in each case for 4 h. In experiments where preincubation of ephrin-A1 was used to initiate internalization and degradation of EphA2, ephrin-A1 was added to the media at a final concentration of the ligand of 2 μg/mL. After incubation, the cells were washed with PBS, and the medium replaced. For fixation prior to confocal imaging, the cells were incubated with 2% (v/v) paraformaldehyde for 30 min
Confocal microscopy. A Zeiss LSM510 confocal microscope was used to take cell images. Cells were incubated with nanogels for 4 h. After 4 h, the cells were washed and then fixed on the slide. […]
Following loading with siGLO, nanogels were incubated with either Hey (high EphA2 expression) or BG-1 (low EphA2 expression) cells in order to compare the levels of targeted uptake by ovarian cancer cells. Uptake of the nanogels into the cells was followed using a fluorescent tag (AFA) incorporated into the nanogel core as well as by the fluorescence of the siGLO. […]

[1] = siRNA release from nanogels in PBS containing 10% fetal bovine serum; type: physicochemical; conditions: after the first 12 hours, 37° C., PBS with 10% fetal bovine serum
Method: [formula] The release of solutes from nanogels was performed in 10% serum to simulate physiological conditions. Release experiments were performed by dispersing 200 μL of loaded nanogels in 2.20 mL of 0.01 M phosphate buffered saline containing 10% fetal bovine serum (equilibrated at 37° C.) in 3.2 mL polycarbonate centrifuge tubes (Beckman Coulter, USA). The nanogel suspension was allowed to incubate at 37° C. while shaking. At specific time points, the tubes were centrifuged for […] at 687 000×g (at 37° C.), and an aliquot of supernatant (0.75 mL) was removed for UV-vis analysis. This volume was replaced with fresh buffer. […] The cumulative siRNA released was calculated by calculating the total moles detected in the supernatant as a function of time, as described in Equation 2.
All release studies were performed in triplicate for statistical analysis, using identical nanogel loading and release conditions.

For “YSA-conjugated nanogels: core/shell pNIPMAm nanogels with YSA peptide coupled to shell amines via maleimide (EMCA) (YSAYPDSVPMMSC; also: coupled to nanogel shell amines via maleimide (EMCA))”, the “nanogel uptake (green AFA fluorescence)” value (Hey cells) was “strong green fluorescence” and the “siRNA retained in the nanogels” value [1] was “approximately 70%”.
